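Compound exposure: 48 hours, 5 concentrations, 96-well plates. Here, GI50 denotes the concentration required for 50% inhibition of growth. At the TGI there is no net growth.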
What was measured:
Test in all cases: NCI-60 cell line screen, 48 h
[1] = test system: K-562 leukemia
[2] = test system: SF-539 CNS
[3] = test system: SNB-75 CNS
[4] = test system: DU-145 prostate
[5] = test system: MOLT-4 leukemia
[6] = test system: OVCAR-8 ovarian
[7] = test system: SF-295 CNS
[8] = test system: SK-MEL-28 melanoma
[9] = test system: COLO 205 colon
[10] = test system: SK-OV-3 ovarian
[11] = test system: OVCAR-5 ovarian
[12] = test system: HOP-62 NSCLC
[13] = test system: ACHN renal
[14] = test system: HS 578T breast
[15] = test system: CAKI-1 renal
[16] = test system: LOX IMVI melanoma
[17] = test system: MCF7 breast
[18] = test system: IGROV1 ovarian
[19] = test system: BT-549 breast
[20] = test system: OVCAR-3 ovarian
[21] = test system: MALME-3M melanoma
[22] = test system: CCRF-CEM leukemia
[23] = test system: HT29 colon
[24] = test system: 786-0 renal
[25] = test system: UO-31 renal
[26] = test system: MDA-MB-231 breast
[27] = test system: A498 renal
[28] = test system: SN12C renal
[29] = test system: SR leukemia

COc1ccc([C@H]2[C@H](O)C(=O)N2c2cc(OC)c(OC)c(OC)c2)cc1
GI50 [1]: < 10 nM
TGI [1]: > 100000 nM
GI50 [2]: < 10 nM
TGI [2]: < 10 nM
GI50 [3]: < 10 nM
TGI [3]: > 100000 nM
GI50 [4]: < 10.9 nM
GI50 [5]: < 16.8 nM
TGI [5]: > 100000 nM
GI50 [6]: < 10 nM
TGI [6]: < 10 nM
GI50 [7]: < 10 nM
TGI [7]: > 100000 nM
GI50 [8]: 1700 nM
TGI [8]: > 100000 nM
GI50 [9]: < 13.2 nM
TGI [9]: < 20.9 nM
GI50 [10]: < 12.1 nM
TGI [10]: > 100000 nM
GI50 [11]: < 17.9 nM
TGI [11]: > 100000 nM
GI50 [12]: < 19.9 nM
TGI [12]: > 100000 nM
GI50 [13]: < 10 nM
TGI [13]: > 100000 nM
GI50 [14]: < 11.1 nM
TGI [14]: > 100000 nM
GI50 [15]: < 10 nM
TGI [15]: > 100000 nM
GI50 [16]: < 10 nM
TGI [16]: > 100000 nM
GI50 [17]: < 10 nM
TGI [17]: > 100000 nM
GI50 [18]: < 10.8 nM
TGI [18]: > 100000 nM
GI50 [19]: < 13.7 nM
TGI [19]: 288 nM
GI50 [20]: < 10 nM
TGI [20]: 120 nM
TGI [21]: > 100000 nM
GI50 [22]: < 10 nM
TGI [22]: > 100000 nM
GI50 [23]: < 10 nM
GI50 [24]: < 17.8 nM
TGI [24]: > 100000 nM
GI50 [25]: < 14 nM
TGI [25]: > 100000 nM
GI50 [26]: < 16.2 nM
TGI [26]: > 100000 nM
GI50 [27]: > 100000 nM
TGI [27]: > 100000 nM
GI50 [28]: < 15 nM
TGI [28]: > 100000 nM
GI50 [29]: < 10 nM

Reference: PubChem BioAssay (NCI)
